Read-outs that look alike come from different tables or passages of the source.
Key:
[1] = tested on: bombesin receptor positive prolactinoma 7315b; settings: female Lewis rats; visualized by scintigraphy
[2] = Dynamic gamma camera: clearance and excretion of radioactivity; settings: rat, in vivo
[3] = for 2 h after labeling with IN-111 up to 100 Mbq per jj. g; HPLC
[4] = rats; cited from earlier work
in vivo = settings: rat, total radioactivity
7315b cells = settings: read-out: agonistic activities on bombesin stimulated prolactin secretion, IC50
[5] = rats
bombesin receptors = test: Receptor autoradiography of human tumor tissue sections with the radioligand; format: binding
Experimental: Various tumor tissue samples, including surrounding tissue, were harvested from human patients and/or human cadavers, and frozen. The samples were cut on a cryostat, mounted on microscope slides, and then stored at −20° C. for […] improve adhesion of the tissue to the slide. The slide-mounted tissue sections were allowed to reach room temperature and preincubated in 50 mmol/1 Tris-HCl, 130 mmol/1 NaCl, 4.7 mmol/1 KCl, 5 mmol/I MgCl2, 1 mmol/l ethylene glycol-bi (b-aminoethylether)-N, N, N′, N′-tetraacetic acid, and 0.5% bovine serum albumin, pH 7.4 (preincubation solution), for 30 min. at 25° C. The slides are then incubated in a solution containing the same medium as the preincubation solution except the bovine serum albumin is omitted, and the following compounds are added: 20000 dpm/100 ml of the radioligand of Example 1, 0.025% bacitracin, 1 mmol/l dithiothreitol, 2 mg/ml chymostatin, and 4 mg/ml leupeptin, pH=6.5. The slides are incubated at room temperature with the radioligand for 150 min., as described by Mantyh et al. (Gasteroenterology, 1994, 107, 1019-30). After the incubation, the slides are rinsed with four washes of 30 sec each in ice-cold preincubation solution, pH 7.4, dipped in ice-cold water, and then quickly dried in a refrigerator under a stream of cold air. The sections are subsequently exposed to a ^3H Ultrofilm for 1 week, to detect the precise location of the radioactivity.
The films were evaluated to determine the ability to distinguish the tumor from the surrounding tissue.

[6] = Breat Cancer Metastases, 5 samples
[7] = Non Small Cell Lung Carcinoma, 34 samples
[8] = Prostate Cancer Metastases, 5 samples
[9] = Small Cell Lung Carcinoma, 10 samples
[10] = Uterus Leomyosarcoma Tumor, 3 samples
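Wherever Tissue RA, Pancreas is given: radiolabelled ligand targeting bombesin receptors, given by intravenous injection at varied injected mass.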
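Wherever ratio vs. blood, Adrenal is given: radiolabelled ligand targeting bombesin receptors, given by intravenous injection at varied injected mass.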
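Wherever ratio vs. blood, Colon is given: radiolabelled ligand targeting bombesin receptors, given by intravenous injection at varied injected mass.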
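Wherever uptake in pancreas and tissues of the GI tract is given: radiolabelled ligand targeting bombesin receptors, given by intravenous injection at varied injected mass.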

## CSCC[C@H](NC(=O)[C@H](CC(C)C)NC(=O)[C@H](Cc1c[nH]cn1)NC(=O)CNC(=O)[C@@H](NC(=O)[C@H](C)NC(=O)[C@H](Cc1c[nH]c2ccccc12)NC(=O)[C@H](CCC(N)=O)NC(=O)[C@H](CC(N)=O)NC(=O)CNC(=O)[C@H](Cc1ccc(O)cc1)NC(=O)[C@H](CCCNC(=N)N)NC(=O)[C@H](CCC(N)=O)NC(=O)[C@@H]1CCCN1C(=O)CN(CCN(CCN(CC(=O)O)CC(=O)O)CC(=O)O)CC(=O)O)C(C)C)C(N)=O [[^111In-DTPA^0, Pro^1, Tyr^4] bombesin, metal not drawn]
[1]
  uptake in bombesin receptor positive prolactinoma 7315b: Specific uptake
[2]
  total body retention: 10%
[3]
  radiochemically stable: > 95%
[4]
  uptake in the pancreas and tissues of the GI-tract: high and specific uptake
In vivo; adrenal, 0.01 ug
  tissue uptake at 48 h: 0.029 %ID/g
In vivo; adrenal, 0.025 ug
  tissue uptake at 48 h: 0.03 %ID/g
In vivo; adrenal, 0.1 ug
  tissue uptake at 48 h: 0.022 %ID/g
In vivo; adrenal, 0.5 ug
  tissue uptake at 48 h: 0.014 %ID/g
In vivo; blood, 0.01 ug
  tissue uptake at 48 h: 0.0009 %ID/g
In vivo; blood, 0.025 ug
  tissue uptake at 48 h: 0.001 %ID/g
In vivo; blood, 0.5 ug
  tissue uptake at 48 h: 0.0008 %ID/g
In vivo; blood, iv, 0.1 ug
  tissue uptake at 48 h: 0.0009 %ID/g
In vivo; bombesin receptor positive tissues
  tissue uptake at 48 h: 0.025 %ID/g
In vivo; colon, 0.01 ug
  tissue uptake at 48 h: 0.072 %ID/g
In vivo; colon, 0.025 ug
  tissue uptake at 48 h: 0.063 %ID/g
In vivo; colon, 0.1 ug
  tissue uptake at 48 h: 0.061 %ID/g
In vivo; colon, 0.5 ug
  tissue uptake at 48 h: 0.036 %ID/g
In vivo; pancreas, 0.025 ug
  tissue uptake at 48 h: 1.2 %ID/g
In vivo; pancreas, 0.1 ug
  tissue uptake at 48 h: 0.72 %ID/g
In vivo; pancreas, 0.5 ug
  tissue uptake at 48 h: 0.43 %ID/g
In vivo; stomach, 0.01 ug
  tissue uptake at 48 h: 0.035 %ID/g
In vivo; stomach, 0.025 ug
  tissue uptake at 48 h: 0.065 %ID/g
In vivo; stomach, 0.1 ug
  tissue uptake at 48 h: 0.042 %ID/g
In vivo; stomach, 0.5 ug
  tissue uptake at 48 h: 0.036 %ID/g
Dynamic gamma camera
  clearance of radioactivity from the blood compartment: rapid clearance
In 1 h
  urinary excretion: 35%
In 20 h
  urinary excretion: 70%
7315b cells
  IC50: 8 nM
[5]
  uptake in pancreas and tissues of the GI tract: high and specific uptake
[5]; 48 h after injection, 0.01 μg
  Tissue RA, Pancreas: 1.0 % ID/g
  ratio vs. blood, Adrenal: 34
  ratio vs. blood, Colon: 85
  ratio vs. blood, Pancreas: 1210
  ratio vs. blood, Stomach: 40
[5]; 48 h after injection, 0.025 μg
  ratio vs. blood, Adrenal: 30
  ratio vs. blood, Colon: 64
  ratio vs. blood, Pancreas: 1217
  ratio vs. blood, Stomach: 64
[5]; 48 h after injection, 0.1 μg
  ratio vs. blood, Adrenal: 26
  ratio vs. blood, Colon: 73
  ratio vs. blood, Pancreas: 856
  ratio vs. blood, Stomach: 50
[5]; 48 h after injection, 0.5 μg
  ratio vs. blood, Adrenal: 18
  ratio vs. blood, Colon: 52
  ratio vs. blood, Pancreas: 574
  ratio vs. blood, Stomach: 50

## pGlu-Gln-Arg-Tyr-Gly-Asn-Gln-Trp-Ala-Val-Gly-His-Leu-Met-NH2 [[^125I-Tyr^4] bombesin]
Bombesin receptors; Breast Cancer, 95 samples
  % Positive: 69%
  Number Positive: 66
Bombesin receptors; [6]
  % Positive: 100%
  Number Positive: 5
Bombesin receptors; Colon Cancer, 18 samples
  % Positive: 6%
  Number Positive: 1
Bombesin receptors; Gastric Cancer, 27 samples
  % Positive: 0%
  Number Positive: 0
Bombesin receptors; Gastrinomas, 4 samples
  % Positive: 100%
  Number Positive: 4
Bombesin receptors; Glioblastomas, 4 samples
  % Positive: 100%
  Number Positive: 4
Bombesin receptors; Melanomas, 8 samples
  % Positive: 12%
  Number Positive: 1
Bombesin receptors; [7]
  % Positive: 0%
  Number Positive: 0
Bombesin receptors; Pancreatic Cancer, 28 samples
  % Positive: 0%
  Number Positive: 0
Bombesin receptors; [8]
  % Positive: 100%
  Number Positive: 5
Bombesin receptors; Prostate Cancer, 28 samples
  % Positive: 100%
  Number Positive: 28
Bombesin receptors; [9]
  % Positive: 20%
  Number Positive: 2
Bombesin receptors; [10]
  % Positive: 33%
  Number Positive: 1

Reference: US6866837B2, “Radiolabeled peptides for the diagnosis and treatment of breast and prostate tumors and metastases of such tumors” (Mallinckrodt Inc., priority 1998, dated 2005)
